# Measurements reported in ChEMBL document CHEMBL1201862, “PubChem BioAssay data set” (2004).
#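 Results reflect a 48-hour exposure of cells in 96-well plates to compound at five concentrations. The concentration for 50% growth inhibition is given as GI50.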 The source made the active and inactive calls. Rule as the data show it: active = GI50 up to about 1.1 µM and inactive = higher.
# Columns and labels:
# Assay in all cases: NCI tumour cell line growth inhibition, 48 h
# MDA-MB-435 = system: MDA-MB-435
# LOX IMVI = system: LOX IMVI
# IGROV-1 = system: IGROV-1
# MOLT-4 = system: MOLT-4
# SK-MEL-5 = system: SK-MEL-5
# HCT-116 = system: HCT-116
# NCI-H522 = system: NCI-H522
# NCI/ADR-RES = system: NCI/ADR-RES
# K562 = system: K562
# SN12C = system: SN12C
# HOP-92 = system: HOP-92
# ACHN = system: ACHN
# Malme-3M = system: Malme-3M
# SK-MEL-2 = system: SK-MEL-2
# UACC-257 = system: UACC-257
# CCRF-CEM = system: CCRF-CEM
# SK-OV-3 = system: SK-OV-3
# RPMI-8226 = system: RPMI-8226
# SF-539 = system: SF-539
# COLO 205 = system: COLO 205
SMILES,GI50 (MDA-MB-435),GI50 (LOX IMVI),GI50 (IGROV-1),GI50 (MOLT-4),GI50 (SK-MEL-5),GI50 (HCT-116),GI50 (NCI-H522),GI50 (NCI/ADR-RES),GI50 (K562),GI50 (SN12C),GI50 (HOP-92),GI50 (ACHN),GI50 (Malme-3M),GI50 (SK-MEL-2),GI50 (UACC-257),GI50 (CCRF-CEM),GI50 (SK-OV-3),GI50 (RPMI-8226),GI50 (SF-539),GI50 (COLO 205)
NC(=O)C[S+]([O-])CC(N)C(=O)O (stereo not given),> 100 µM (inactive),> 100 µM (inactive),> 100 µM (inactive),> 100 µM (inactive),> 100 µM (inactive),> 100 µM (inactive),> 100 µM (inactive),> 100 µM (inactive),> 100 µM (inactive),> 100 µM (inactive),> 100 µM (inactive),> 100 µM (inactive),> 100 µM (inactive),> 100 µM (inactive),> 100 µM (inactive),,,,,
Cn1c(=O)c2nc(CCNC(=O)c3ccccc3)[nH]c2n(C)c1=O,> 100 µM (inactive),> 100 µM (inactive),> 100 µM (inactive),> 100 µM (inactive),> 100 µM (inactive),> 100 µM (inactive),> 100 µM (inactive),> 100 µM (inactive),> 100 µM (inactive),> 100 µM (inactive),> 100 µM (inactive),> 100 µM (inactive),> 100 µM (inactive),> 100 µM (inactive),> 100 µM (inactive),> 100 µM (inactive),,,,
O=C(CSCC(=O)N/N=C/c1cc(I)cc(I)c1O)N/N=C/c1cc(I)cc(I)c1O,25.4 µM (inactive),,8.28 µM (inactive),5.19 µM (inactive),10.6 µM (inactive),9.29 µM (inactive),6.38 µM (inactive),17.2 µM (inactive),11.1 µM (inactive),23.2 µM (inactive),39.5 µM (inactive),11.9 µM (inactive),18.1 µM (inactive),23.7 µM (inactive),22.4 µM (inactive),,10.8 µM (inactive),26.5 µM (inactive),7.57 µM (inactive),23.1 µM (inactive)
Cc1ccc2nc(-c3ccc(N4C(=O)C(Cl)C4c4ccc(Cl)cc4)cc3)sc2c1 (stereo not given),17.4 µM (inactive),5.35 µM (inactive),,,14.2 µM (inactive),21.6 µM (inactive),,18.5 µM (inactive),24.5 µM (inactive),19.9 µM (inactive),0.137 µM (active),22.4 µM (inactive),28.8 µM (inactive),,25.1 µM (inactive),7.94 µM (inactive),12.7 µM (inactive),11.5 µM (inactive),17.5 µM (inactive),14.6 µM (inactive)
CCN1CCC(CNC(=O)c2ccc(N)cc2)N1CC (stereo not given),> 100 µM (inactive),,> 100 µM (inactive),> 100 µM (inactive),> 100 µM (inactive),> 100 µM (inactive),> 100 µM (inactive),> 100 µM (inactive),> 100 µM (inactive),> 100 µM (inactive),> 100 µM (inactive),> 100 µM (inactive),> 100 µM (inactive),> 100 µM (inactive),> 100 µM (inactive),> 100 µM (inactive),> 100 µM (inactive),> 100 µM (inactive),> 100 µM (inactive),> 100 µM (inactive)
Brc1ccc2c3c1[C@H]1O[C@H]1c1cccc(c1-3)[C@@H]1O[C@H]21,15 µM (inactive),2.82 µM (inactive),,3.61 µM (inactive),15 µM (inactive),13.2 µM (inactive),10.4 µM (inactive),22.2 µM (inactive),2.65 µM (inactive),17.6 µM (inactive),20.5 µM (inactive),15.3 µM (inactive),17.8 µM (inactive),18.3 µM (inactive),14.8 µM (inactive),,19.1 µM (inactive),,,19.3 µM (inactive)
